Reference: US7705016B2, “Regulation of food intake by modulation of long-chain fatty acyl-CoA levels in the hypothalamus” (Albert Einstein College of Medicine of Yeshiva University, priority 2003, dated 2010)

Key:
KATP = assay: IV lipid infusion with ICV glybenclamide or hepatic vagotomy, pancreatic clamp (Example 4); format: in vivo, rat; details: near basal insulin (~27 μU/ml), groups S+ICVG, IL+ICVC
Description: Hepatic “Autoregulation” in Response to Lipid Infusion Requires Central Stimulation of K-channels (KATP) and Liver Vagal Innervation. […] Since the administration of the LCFA oleic acid in the third cerebral ventricle (ICV) inhibits GP via stimulation of KATP, here we test the hypotheses that: 1) the central activation of KATP by LCFAs restrains GP during lipid infusions, and 2) that this effect requires hepatic vagal input. To this end, 5 h fasted S-D rats were randomized to receive: IV Intralipid+heparin (IL) (increased LCFA levels by ˜3 fold) or saline (S) in combination with ICV Glybenclamide (G) [inhibitor of KATP] or vehicle (C) for 6 h. All rats also received IV infusions of [3-^3H]-glucose for the last 4 h and [U-^14C]-lactate for the last 10 min of the ICV infusion and a pancreatic clamp during the last 2 h of each study. During the clamp period, in the presence of near basal insulin levels (˜27 μU/ml), GP (˜6 mg/kg.min) was unchanged in S+ICVC, S+ICVG or IL+ICVC. […] To examine whether the central effects of LCFA on GP are mediated by vagal stimulation, we next repeated the lipid infusion studies in rats with selective hepatic vagotomy (HV). During the pancreatic clamp period, GP (˜6 mg/kg/min) was similar in S-treated HV and S or IL treated sham-operated rats. Importantly, IL increased GP to 9.7±0.5 (P<0.001) in HV, recapitulating the effect ICVG. […]

hypothalamic CPT1 [1] = molecular target: T1, hypothalamic CPT1 (Rattus norvegicus, UniProt P32198); assay: ICV CPTi with or without glybenclamide or liver-selective vagotomy, pancreatic/insulin clamp (Example 4); format: in vivo; design: from tissue; host or cells: hypothalamus of living S-D rats; details: ICV GLY in CON-infused rats (CON-GLY); not shown
T1 sequence (P32198 1-773): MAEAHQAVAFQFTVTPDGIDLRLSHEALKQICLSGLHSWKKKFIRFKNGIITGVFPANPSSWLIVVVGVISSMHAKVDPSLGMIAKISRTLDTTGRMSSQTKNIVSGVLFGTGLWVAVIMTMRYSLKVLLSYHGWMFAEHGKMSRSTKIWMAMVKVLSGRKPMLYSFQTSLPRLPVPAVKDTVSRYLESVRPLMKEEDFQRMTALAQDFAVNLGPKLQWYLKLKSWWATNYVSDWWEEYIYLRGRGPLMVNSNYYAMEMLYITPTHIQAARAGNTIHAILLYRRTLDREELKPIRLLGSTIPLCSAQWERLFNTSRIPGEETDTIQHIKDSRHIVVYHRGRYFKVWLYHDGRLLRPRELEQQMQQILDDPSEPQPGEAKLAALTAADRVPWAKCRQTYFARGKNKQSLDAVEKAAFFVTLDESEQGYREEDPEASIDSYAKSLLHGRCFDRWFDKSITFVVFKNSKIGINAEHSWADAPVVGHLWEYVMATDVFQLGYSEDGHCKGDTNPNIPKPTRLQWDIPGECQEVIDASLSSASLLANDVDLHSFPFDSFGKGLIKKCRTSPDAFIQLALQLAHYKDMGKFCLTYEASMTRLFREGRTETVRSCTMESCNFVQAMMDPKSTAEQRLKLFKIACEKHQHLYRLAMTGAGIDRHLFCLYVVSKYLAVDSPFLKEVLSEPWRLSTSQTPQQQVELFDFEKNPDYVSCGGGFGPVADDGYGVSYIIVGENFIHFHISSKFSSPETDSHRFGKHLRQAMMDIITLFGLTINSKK
Source text: Decreasing Hypothalamic Lipid Oxidation Inhibits Endogenous Glucose Production (GP) via stimulation of K-channels (KATP) and Vagus Nerve. Administration either of the long-chain fatty acid (LCFA) oleic acid (OA) or of inhibitors of CPT-1 activity (CPT1) in the third cerebral ventricle (ICV) inhibits GP. Here, we hypothesize that inhibition of hypothalamic lipid oxidation with CPTi decreases GP via central activation of ATP-dependent potassium channels (KATP) leading to increased vagal input to the liver. […] All rats also received an IV infusion of [3-^3H]-glucose for the last 4 hr of ICV infusion and pancreatic/insulin clamp (insulin 1 mU/kg/min; somatostatin […]) during the last 2 hr of each study. In the presence of basal insulin levels, glucose infusion (GIR) was required to prevent hypoglycemia in the CPTi (4.9±1.0 mg/kg/min), but not in the CON (2.1±0.4 mg/kg/min) and CPTi-GLY (1.4±0.5 mg/kg/min) groups. […] To investigate whether this neural pathway acts via the hepatic branch of the vagus nerve, ICV CPTi or CON infusions were also performed in rats receiving liver-selective vagotomy (LV) or sham-operation (SH). GIR was markedly higher in CPTi-SH (4.7±1.3 mg/kg/min) compared with both CON-SH (1.3±0.4 mg/kg/min) and CPTi-LV (0.8±0.5 mg/kg/min). […]

hypothalamic CPT1 [2] = molecular target: T1, hypothalamic CPT1; assay: ICV infusion with pancreatic-insulin clamp, glucose kinetics (Example 1); format: in vivo; design: CPT1 activity was measured in the particulate fraction of protein extracts from animals treated with ICV control injections; from tissue; host or cells: hypothalamus (arcuate nucleus) of male Sprague-Dawley rats, in vivo or ex vivo; Insulin (iU/ml): unit not given here; details: for Food Intake: measured prior to acute ICV infusion, except CPT1L-Ribo group (3 days after ICV)
Description: Hypothalamic inhibition of CPT1 inhibits glucose production. Experiments were also designed to examine the effect of central inhibition of CPT-1 on whole body insulin action (FIG. 4a,b). Insulin action was assessed by a combination of ICV infusions with systemic pancreatic-insulin clamp studies (FIG. 4b). In these studies, the daily food intake was matched in the rats receiving ICV vector and ICV CPT1L-Ribo (Table 1). All rats also received an intra-arterial infusion of [3-^3H]-glucose for the last 4 hr of ICV infusion and a pancreatic/insulin clamp (insulin 1 mU/kg.min; somatostatin 3 μg/kg/min) during the last 2 hr of the study (Obici et al., 2002a; Obici et al., 2001). As expected in the presence of ˜basal circulating insulin levels (clamp procedure; Table 1), the rate of glucose infusion (GIR) required to maintain euglycemia was marginal in ICV control studies (vector-ST1340- or vehicle-infused animals; ˜0.8 mg/kg/min). By contrast, following ICV infusion of inhibitors of CPT-1 expression or activity glucose had to be infused at the rate of ˜5 mg/kg/min in order to prevent hypoglycemia. Thus, central inhibition of CPT-1 activity in the presence of fixed and basal insulin concentrations stimulates insulin action on glucose homeostasis.
(§1) Animal preparation for in vivo experiments. We studied ninety-three 10-week old male Sprague-Dawley rats (Charles River Breeding Laboratories, Wilmington, Mass.). Rats were housed in individual cages and subjected to a standard light-dark cycle. Three weeks prior to the in vivo studies, we placed a chronic catheter in the third cerebral ventricle by stereotaxic surgery (Obici et al., 2002a; Obici et al., 2001; Liu et al., 1998). One week before the pancreatic-insulin clamp protocols, we placed additional catheters in the right internal jugular and left carotid artery (Obici et al., 2001; Liu et al., 1998). All ICV solutions were dissolved in artificial cerebral spinal fluid (aCSF). Food intake was monitored daily.
Measurements of in vivo glucose kinetics and pancreatic-insulin clamp procedure. The infusion studies lasted a total of 360 min (FIG. 3a). Briefly, at t=0 min a primed-continuous ICV infusion of either CPT1 inhibitors or control solution was initiated and maintained for the remainder of the study. 2-tetradecylglydate (TDGA, a gift from Dr. Manuel Guzman) was dissolved in DMSO, diluted into aCSF (Harvard Apparatus) and infused ICV at a rate of 50 pmoles/hr. […] Prior to the pancreatic-insulin clamp studies, rats receiving ICV injection of either CPT1L-Ribo or vector control three days prior to the clamp procedure were randomized into two pair-fed experimental groups. A primed-continuous infusion of HPLC-purified [3-^3H]-glucose (New England Nuclear, Boston, Mass.; 40 μCi bolus, 0.4 μCi/min) was started at t=120 min and continued for the duration of the study (Obici et al., 2002a; Obici et al., 2001; Liu et al., 1998). Finally, a pancreatic-insulin clamp (Obici et al., 2002a; Obici et al., 2001; Liu et al., 1998) was initiated at t=240 min and lasted for 2 hours. This procedure involved the infusion of somatostatin (3 μg/kg/min), insulin (1 mU/kg/min), and glucose as needed to prevent hypoglycemia, or antibodies against C peptide (Linco) and Melanocortin Receptor type 2 (Chemicon). The rate of insulin infusion was designed to replace normal basal levels in postabsorptive rats.
Radioactivity of [^3H]glucose in plasma was measured from supernatants of Ba(OH)2 and ZnSO4 precipitates after evaporation to dryness for the removal of tritiated water (Somogyi pellet). The specific activity of tritiated water in plasma (Somogyi filtrate) was determined from the total counts of the protein-free supernatant before and after evaporation to dryness. Under steady state conditions for plasma glucose concentration, the rate of glucose disappearance (Rd) equals the rate of glucose appearance (Ra). […]

hypothalamic CPT1 [3] = molecular target: T1, hypothalamic CPT1; assay: Food intake after ICV bolus of CPT1 antagonists; format: in vivo; design: CPT1 activity was measured in the particulate fraction of protein extracts from animals treated with ICV control injections; from tissue; host or cells: hypothalamus (arcuate nucleus) of male Sprague-Dawley rats, in vivo or ex vivo; details: single ICV injection
Description: Hypothalamic inhibition of CPT1 decreases food intake. First we examined whether central administration of molecular and pharmacological antagonists of CPT1 modulates feeding behavior in conscious rats (FIG. 3). […] Food intake was monitored in metabolic cages before and up to 72 h after the ICV injections (Obici et al., 2002a). […] The marked effect of ICV CPT1L-Ribo on food intake was significant when compared with either control vector or with an unrelated control ribozyme (FIG. 3c). […] The anorectic effect of central CPT1 inhibition lasted for at least 48 h following a single ICV administration. These decreases in food intake were significant compared with both baseline and vehicle/control (FIG. 3a-e). The changes from baseline induced by CPT1 inhibition were statistically significant at 24 h (−17.6±2.0 g and −12.4±3.9 g), and 48 h (−13.4±1.8 g and −7.8±3.8 g) following ICV administration of CP1L-Ribo and high dose ST 1326, respectively (FIGS. 3b and e). This represented a ˜50% decrease in daily food intake, which returned toward baseline values by 72 h.
as §1
Effect of central inhibition of CPT1 and food intake. We examined the effects of ICV CPT1L-Ribo and ST 1326 on food intake. Three-hours before the start of the dark cycle, CPT1L-Ribo or vector control, ST 1326 or ST 1340 was injected as a bolus via indwelling catheters implanted in the third cerebral ventricle. In the feeding studies, rats received a single bolus injection of 25 pmoles of ST1340 or two different doses (5 and 25 pmoles) of ST1326. Rats were adapted to the metabolic cages and their daily food intake had been constant (changes <10%) for a minimum of three consecutive days preceding the ICV injections. Food intake was continuously monitored for the following 72 h.

rats = details: ICV, equimolar to oleic acid; cited from earlier work

Row | SMILES | GP during the clamp period (KATP) [mg/kg.min] | GP (hypothalamic CPT1 [1]) | Body wt. (hypothalamic CPT1 [2]; Basal) [g] | FFA (hypothalamic CPT1 [2]; Basal) [mM] | Glucose (hypothalamic CPT1 [2]; Basal) [mM] | Insulin (hypothalamic CPT1 [2]; Basal) [ng/mL] | Leptin (hypothalamic CPT1 [2]; Basal) [ng/mL] | Food Intake (hypothalamic CPT1 [2]; Basal) [g] | FFA (hypothalamic CPT1 [2]; Clamp, steady-state) [mM] | Glucose (hypothalamic CPT1 [2]; Clamp, steady-state) [mM] | Insulin (iU/ml) (hypothalamic CPT1 [2]; Clamp, steady-state) | decrease in glucose production (GP) (hypothalamic CPT1 [2]; basal and equal insulin levels (~20 μU/ml), ICV) [%] | glucose production (GP) during pancreatic clamp vs ICV vehicle controls (hypothalamic CPT1 [2]; ~basal insulin concentrations, p<0.01) | rate of glucose infusion (GIR) required to maintain euglycemia (hypothalamic CPT1 [2]; pancreatic-insulin clamp, ~basal insulin, ICV infusion) [mg/kg/min] | effect on food intake / feeding behavior (hypothalamic CPT1 [3]) | suppressive effects of ICV oleic acid on food intake and on GP, with equimolar administration (rats)
1 | COc1ccc(Cl)cc1C(=O)NCCc1ccc(S(=O)(=O)NC(=O)NC2CCCCC2)cc1 [GLY, glybenclamide] | ~6 | did not alter | – | – | – | – | – | – | – | – | – | – | – | – | – | –
2 | CCCCCCCCCCCCCCC1(C(=O)O)CO1 (stereo not shown) [TDGA, 2-tetradecylglydate] | – | – | 319 ± 10 | 0.5 ± 0.1 | 8.2 ± 0.8 | 1.9 ± 0.1 | 1.7 ± 0.1 | 25 ± 2 | 0.5 ± 0.1 | 8.1 ± 0.5 | 25 ± 3 | 47±6 | markedly inhibited GP | – | – | –
3 | CCCCCCCCCCCCCCNC(=O)N[C@@H](CC(=O)[O-])C[N+](C)(C)C [ST1340, (S)-N-(tetradecylcarbamoyl)-aminocarnitine] | – | – | 307 ± 6 | 0.4 ± 0.1 | 8.0 ± 1.0 | 1.4 ± 0.2 | 0.9 ± 0.2 | 22 ± 3 | 0.4 ± 0.1 | 8.2 ± 0.9 | 25 ± 4 | – | – | ~0.8 | failed to modify feeding behavior | –
4 | CCCCCCCC(=O)O [octanoic acid] | – | – | – | – | – | – | – | – | – | – | – | – | – | – | – | not replicated
